Measurements: patent US12162878B2 (HINOVA PHARMACEUTICALS INC., priority 2018, dated 2024)

Tests used:
MCF-7 cells = assay: Inhibition of proliferation of MCF-7 cells (CCK-8); assay type: cell-based, human; settings: for IC50: Homo sapiens, MCF7, 144 h, 6 days, CCK-8
Procedure: • MCF-7 cell line (Cell Bank of Chinese Academy of Sciences, TCHu74) • FBS (Gibco, Cat. No. 10099-141) • 0.01M PBS (Biosharp, Cat. No. 162262) • RIPM1640 (Hyclone, Cat. No. 308090.01) • Penicillin-Streptomycin (Hyclone, Cat. No. SV30010) • Cell counting kit-8 (Signalway Antibody, Cat. No. CP002) • DMSO (Sigma, Cat. No. D5879) • Centrifuge Tube, 15 ml (Excell Bio, Cat. No. CS015-0001) • Cell Culture Dish, (Excell Bio, Cat. No. CS016-0128) • 96-well cell culture cluster (Corning, Cat. No. 3599) 3. Experimental Method
1) MCF-7 cells were subcultured in cell culture media, and the cells in good growth condition were seeded in a 96-well plate, 80 μL for each well, thus the number of cells per well was 1000, then the plate was cultured overnight in a 37° C., 5% CO2 cell incubator.
2) The drug was prepared with dimethyl sulfoxide (DMSO) as a 10 mM stock solution. Prior to use, the solution was diluted 3 times with DMSO, and then diluted with a 3-fold gradient to obtain 9 concentration gradients. Then, each concentration of the compound was further diluted 200 times with the culture media (to ensure that DMSO concentration in the culture system was 0.1%), 2 repeat wells for each concentration. The diluted solution of each compound (20 μL) was added to the cell culture well (with a final concentration of 10 μM, 3.3 μM, 1.1 μM . . . ), and shaken gently for mixing.
In addition, three negative control wells containing only cells and three blank control wells containing only culture medium (20 μL DMSO diluted 200 times with culture medium being added to six wells) were included.
(1) After culturing for 6 days, 10 μL CCK-8 was added to each well and cultured for additional 2.5 h in a 37° C., 5% CO2 cell incubator.
(2) The absorbance (OD value) at 450 nm was measured with a multifunctional microplate reader.
(3) The data was analyzed by the Dose-response-inhibition equation in the software GraphPad Prism6, and the IC50 value was obtained.

BRDT(D1) = BRDT(D1) (Homo sapiens (Human), UniProt Q58F21); assay: HTRF binding of compounds on BRDT (D1); settings: read-out: IC50 against BRDT(D1)
Text: (§1) Homogeneous time-resolved fluorescence technology (HTRF) was used to determine the binding effect of compounds on BRD4 (D1+D2) and BRDT (D1) proteins, as well as AlphaScreen method was used to detect the binding effect of compounds on BRD2 (D1+D2) and BRD3 (D1+D2) proteins.
(§2) The compounds were screened in vitro, and each compound was serially diluted to 10 concentrations. Four proteins BRD4 (D1+D2), BRDT (D1), BRD2 (D1+D2) and BRD3 (D1+D2) were chosen to determine the IC50 values of compounds (see Table 1).
(§3) 4. Compound treatment: The test compound was dissolved in dimethyl sulfoxide (DMSO), and the storage concentration was 10 mM.
5. Steps for Homogeneous Time-Resolved Fluorescence Detection:
1) According to the arrangement of the detection plate, all compounds were diluted in Echo plate.
The final dilution concentration of DMSO is 0.1%.
2) The compound or DMSO was transferred to a 384-well detection plate with the Echo automatic sampler.
3) Two-fold concentration of the mixture of protein and peptide was added to the detection plate.
4) Two-fold concentration of mixed detection solution was added to the test plate, and shaken for 30 s.
5) Incubating for 2 h at room temperature.
6) Fluorescence signal was read on Envision multi-function microplate reader (excitation light wavelength being 340 nm, and emission light wavelength being 615 nm and 665 nm).
The experimental data were recorded in an Excel file, and equation (1) was used to obtain the inhibition rate. Inh%=(Max−Signal)/(Max−Min)*100 Equation (1):
The obtained data was recorded in GraphPad software, and equation (2) was used to provide the IC50 values. Y=Bottom+(Top−Bottom)/(1+10^((Log IC50−X)*Hill Slope)) Equation (2): […]
Y axis was the inhibition rate, and X axis was the compound concentration.

BRD3(1,2) = BRD3(1,2) (Homo sapiens (Human), UniProt Q15059); assay: AlphaScreen binding of compounds on BRD3 (D1+D2); settings: read-out: IC50 against BRD3(1,2)
Sequence of BRD3(1,2) (Q15059 29-417): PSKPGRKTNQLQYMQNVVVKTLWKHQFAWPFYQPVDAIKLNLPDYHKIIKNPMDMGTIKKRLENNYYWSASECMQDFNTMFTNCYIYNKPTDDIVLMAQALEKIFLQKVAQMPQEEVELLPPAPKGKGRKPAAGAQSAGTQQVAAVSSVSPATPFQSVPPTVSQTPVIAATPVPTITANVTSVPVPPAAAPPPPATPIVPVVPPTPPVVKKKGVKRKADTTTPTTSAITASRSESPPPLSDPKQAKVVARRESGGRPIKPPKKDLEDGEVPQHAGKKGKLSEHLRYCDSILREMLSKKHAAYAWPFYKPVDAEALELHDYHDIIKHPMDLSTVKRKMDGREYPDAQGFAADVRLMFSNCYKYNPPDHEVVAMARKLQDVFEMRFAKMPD
Text: as §1, §2, §3
(§4) 6. AlphaScreen Detection Procedures:
(§5) 1) Preparing One-Fold Concentration of Detection Buffer
(§6) One-fold concentration of detection buffer was prepared (Improved HEPES buffer)
(§7) 2) Gradient Dilution of Compounds
(§8) Echo automatic sampler was used to transfer the compound to the detection plate for gradient dilution, so that the final concentration of dimethyl sulfoxide was 0.1%.
(§9) 3) Preparation of Protein Solution
(§10) The protein was dissolved in one-fold concentration of detection buffer.
(§11) 4) Preparation of Substrate Solution
(§12) The peptide was dissolved in one-fold concentration of detection buffer to prepare the substrate solution.
(§13) 5) 5 μL protein solution was transferred to the detection plate, and one-fold concentration of detection buffer (5 μL) was placed in the negative control wells.
(§14) 6) The plate was incubated for 15 min at room temperature.
(§15) 7) 5 μL substrate solution was added to each well to start the reaction.
(§16) 8) The plate was incubated for additional 60 min at room temperature.
(§17) 9) Preparation of acceptor solution and donor solution in one-fold concentration of assay buffer Acceptor solution (15 μL) and donor solution (15 μL) were respectively added, and then incubated at room temperature for 60 min and protected against exposure to light.
(§18) 10) The endpoint was read in EnSpire and Alpha mode.
(§19) The experimental data were recorded in an Excel file and equation (1) was used to get the inhibition rate. Inh%=(Max−Signal)/(Max−Min)*100 Equation (1):
(§20) The obtained data were input into GraphPad software, and equation (2) was used to obtain the IC50 value. Y=Bottom+(Top−Bottom)/(1+10^((Log IC50−X)*Hill Slope)) Formula (2): […]
(§21) Wherein, Y axis was the inhibition rate, and the X axis was the compound concentration.

BRD2(1,2) = BRD2(1,2) (Homo sapiens (Human), UniProt P25440); assay: AlphaScreen binding of compounds on BRD2 (D1+D2); settings: read-out: IC50 against BRD2(1,2)
Sequence of BRD2(1,2) (P25440 65-459): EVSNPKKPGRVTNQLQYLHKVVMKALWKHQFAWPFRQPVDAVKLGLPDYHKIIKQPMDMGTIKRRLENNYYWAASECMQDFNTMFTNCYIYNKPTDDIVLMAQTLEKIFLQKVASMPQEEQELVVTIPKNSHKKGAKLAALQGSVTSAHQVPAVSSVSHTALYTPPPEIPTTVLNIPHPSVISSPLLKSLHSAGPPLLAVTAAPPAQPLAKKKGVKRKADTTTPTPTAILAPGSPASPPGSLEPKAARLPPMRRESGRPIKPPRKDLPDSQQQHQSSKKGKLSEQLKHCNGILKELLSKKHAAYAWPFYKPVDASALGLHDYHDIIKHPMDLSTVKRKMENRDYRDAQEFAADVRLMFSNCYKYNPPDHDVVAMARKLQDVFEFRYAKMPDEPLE
Text: as §1, §2, §3, §4, §5, §6, §7, §8, §9, §10, §11, §12, §13, §14, §15, §16, §17, §18, §19, §20, §21

Row | SMILES | IC50 (MCF-7 cells) [nM] | IC50 (BRDT(D1)) [nM] | IC50 (BRD3(1,2)) [nM] | IC50 (BRD2(1,2)) [nM] | inhibitory action on MCF-7 cells (in words) (MCF-7 cells)
1 | [2H]C([2H])([2H])n1cc(-c2cc(NS(=O)(=O)CC)ccc2N2CCC3(CC2)CC3)c2cc[nH]c2c1=O [Compound 41] | 54 | 30 | 5.2 | 2.3 | 
2 | [2H]C([2H])([2H])n1cc(-c2cc(S(=O)(=O)CC)ccc2N2CCC3(CC3)C2)c2cc[nH]c2c1=O [Compound 55, 4-(5(ethylsulfonyl)-2-(5-aza-spiro[2.4]heptan-5-yl)phenyl)-6-trideuteromethyl-1H-pyrrolo[2,3-c]pyridin-7(6H)-one] | 100 |  |  |  | 
3 | [2H]C([2H])([2H])n1cc(-c2cc(S(C)(=O)=O)ccc2N2CCC3(CC2)CC3(F)F)c2cc[nH]c2c1=O [Compound 184, 4-(2-(1,1-difluoro-6-aza-spiro[2.5]octan-6-yl)-5-(methylsulfonyl)phenyl)-6-trideuteromethyl-1H-pyrrolo[2,3-c]pyridin-7(6H)-one] | 14 | 19 | 4.7 | 2 | effective inhibitory action
4 | [2H]C([2H])([2H])n1cc(-c2cc(S(C)(=O)=O)c(F)cc2N2CCC3(CC2)CC3(F)F)c2cc[nH]c2c1=O [Compound 219, 4-(2-(1,1-difluoro-6-aza-spiro[2.5]octan-6-yl)-4-fluoro-5-(methylsulfonyl)phenyl)-6-trideuteromethyl-1H-pyrrolo[2,3-c]pyridin-7(6H)-one] |  | 40 | 6.7 | 1.8 | 
